Values quoted from earlier work in US20090285767A1, “USE OF OZONATED LIQUIDS AND PEROXIDES TO WHITEN TEETH” (priority 2008, published 2009).

Settings: gaseous ozone, device of the Lynch '985 patent

SMILES: O=[O+][O-] [gaseous ozone, ozone]
- whitening of extrinsic discoloration, effect on brown-colored melanoidins: ability of gaseous ozone to whiten extrinsic discoloration
